The subject of one series is NCCIT cells. Kind of series: Cell viability (alamar blue), cisplatin with concurrent EET-A. It is filed as cell-based, human. As to the method:
In this study, HEK293, U87MG, Hela cell-lines were obtained from the ATCC (Manassas, Va., USA) (HEK293, U87MG, Hela), and NCCIT was collected from Department of Pediatrics, UT Southwestern Medical Center at Dallas, Tex., USA. All cell lines were maintained in DMEM or RPIM with 10% fetal bovine serum and penicillin/streptomycin purchased from Life Technologies (Grand Island, N.Y., USA). Cisplatin was purchased from either Sigma (St. Louis, Mo., USA) or CalBiochem/EMD Biosciences (Billerica, Mass., USA). Cells were seeded in 96-well plates at 500 to 4,000 cells per well depends on cell type. […] Cell viability was measured by alamar blue assay using resazurin (Sigma Aldrich) according to the manufacturer's guidelines. Viability results were measured by fluorescence/absorbance in a 96-well plate reader from BMG Labtech (Cary, N.C., USA) and the IC50 was calculated by GraphPad Prism® software (GraphPad Software Inc, La Jolla, Calif., USA).
(Resazurin is reduced to fluorescent resorufin, in cell work by metabolically active cells.)

A further series deals with bovine coronary artery. Description: Vasorelaxant activity in bovine coronary artery rings precontracted with U-46619. It is filed as cell-based. Conditions: Bos taurus. As to the method: Vasorelaxant activity was measured in bovine coronary artery. Bovine hearts were obtained and the left anterior descending coronary artery was dissected and cleaned of connective tissue. Vessels of 1 mm diameter were cut into rings of 3 mm width as previously described (3, 27, 39). […] The vessels were suspended from a pair of stainless steel hooks in a 6-ml water-jacketed organ chamber. […] One hook was anchored to a steel rod and the other hook to a force transducer (model FT-03C; Grass Instruments, West Warwick, R.I.). Tension of the vessel was measured by an ETH-400 bridge amplifier, and the data were acquired with a MacLab 8e analog-to-digital converter and MacLab software version 3.5.6 (AD Instruments, Milford, Mass.) and stored on a Macintosh computer for subsequent data analysis.
Basal tension was set at the length-tension maximum of 3.5 g and equilibrated for 1.5 h. KCl (40 mM) was added to the chamber until reproducible maximal contractions were maintained. […] Cumulative additions of compounds were added to the chamber. Between concentration-response curves, the chambers were rinsed with fresh Krebs buffer, 40 mM KCl was administered to determine the maximum contraction, and the vessels were rinsed. Consecutive concentration-response curves were performed with 14,15-EET followed by a concentration-response curve to a compound. The experiment was always repeated with the order of the agonists reversed. […] The relaxation was plotted versus compound concentration and the EC50 determined utilizing statistical software.

In another series the target is Human recombinant sEH (Homo sapiens (Human), UniProt P34913). Description: Soluble epoxide hydrolase inhibition (PHOME fluorescent substrate). The format is biochemical. The conditions noted are these: Table 1 head prints μM (Table 2 prints nM for same numbers); read-out: sEHi IC50. As to the method:
Compounds were tested for their ability to inhibit recombinant soluble epoxide hydrolase (sEH) protein. The assay utilizes (3-Phhenyl-oxiranyl)-acetic acid cyano-(6-methoxy-naphthalen-2-yl)-methyl ester (PHOME), a sensitive substrate for sEH that can be used to monitor the activity of both human and murine enzymes. […] Human recombinant sEH was incubated with substrate and compounds ranging in concentration from 0.1 to 1000 nM.

Like-named read-outs stand apart in the source and are kept apart here.

Human recombinant sEH, sequence (P34913 whole entry): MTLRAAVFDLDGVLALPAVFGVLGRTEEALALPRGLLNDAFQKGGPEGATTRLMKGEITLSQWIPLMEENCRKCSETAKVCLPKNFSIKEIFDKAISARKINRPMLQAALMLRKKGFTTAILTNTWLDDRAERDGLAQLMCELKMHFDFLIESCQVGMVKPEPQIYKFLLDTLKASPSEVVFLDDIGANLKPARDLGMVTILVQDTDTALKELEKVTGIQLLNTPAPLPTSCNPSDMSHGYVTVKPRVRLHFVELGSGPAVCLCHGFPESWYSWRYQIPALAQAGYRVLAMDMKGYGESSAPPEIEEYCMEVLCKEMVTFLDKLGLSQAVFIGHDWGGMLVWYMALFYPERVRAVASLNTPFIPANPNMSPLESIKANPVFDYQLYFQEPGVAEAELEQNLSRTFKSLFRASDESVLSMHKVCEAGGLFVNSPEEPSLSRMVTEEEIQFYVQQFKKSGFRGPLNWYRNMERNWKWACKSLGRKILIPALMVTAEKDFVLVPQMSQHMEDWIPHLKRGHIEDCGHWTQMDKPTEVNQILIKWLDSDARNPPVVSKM

`N.N.[Cl][Pt][Cl]` [cisplatin]: the IC50 in the series on NCCIT cells (read-out: IC50 for cisplatin, with 0 ng/ml EET-A) is 2.6 µM; in the series with NCCIT cells (read-out: IC50 for cisplatin, with 1 ng/ml EET-A) it was 2.55 µM; with NCCIT cells (read-out: IC50 for cisplatin, with 10 ng/ml EET-A), 2.44 µM.
Turning to `CCCCCNC(=O)NCCCC/C=C\CCOc1cccc2sc(NC(C)=O)nc12` [Compound 33, N-(4-(8-(3-n-Pentylureido)oct-3(Z)-enyloxy)benzo[d]thiazol-2-yl)acetamide], the melting point – broadly, the temperature, or range, at which the solid turns liquid – lay within 113.7 to 113.8 °C. In the series with bovine coronary artery (10 μM, 100% relaxation = basal pre-U-46619 tension, read-out: Vascular Relax. % (10 μM)), the activation at 10 µM is 73%. The EC50 (usually the midpoint of the concentration-response curve) in the series on bovine coronary artery (bovine coronary artery, read-out: Vascular Relax. EC50) was 3.3 µM. Further, the IC50 on Human recombinant sEH was determined as 0.282 µM.

(Values after patent US9127027B2, “Epoxyeicosatrienoic acid analogs and methods of making and using the same” (The Medical College of Wisconsin, Inc., priority 2011, dated 2015).)
